Measurements: patent US20120035206A1, “PREPARATION AND APPLICATION OF NOVEL ANTIBACTERIAL AND ANTICANCER COMPOUNDS AND THEIR DERIVATIVES” (priority 2009, published 2012)
In brackets after ≈: the same amount, converted by molar mass.

Tests used:
Assay type in all cases: cell-based
[1] = test system: C. Krusei; assay: In vitro antibacterial (antifungal) test, two-fold dilution MIC; conditions: Pichia kudriavzevii, RPMI 1640, culture 2-7 days
[2] = test system: C. albicans; assay: as above; conditions: Candida albicans, read-out: MIC C. albicas
[3] = test system: C. glabrata; assay: as above; conditions: Nakaseomyces glabratus, RPMI 1640, culture 2-7 days
[4] = test system: C. neoformans; assay: as above; conditions: Cryptococcus neoformans, RPMI 1640, culture 2-7 days
[5] = test system: C. parapsilosis; assay: as above; conditions: Lodderomyces parapsilosis, RPMI 1640, culture 2-7 days
[6] = test system: C. tropicalis; assay: as above; conditions: Candida tropicalis, RPMI 1640, culture 2-7 days
[7] = test system: E. floccosum; assay: as above; conditions: Epidermophyton floccosum, RPMI 1640, culture 2-7 days
[8] = test system: Fusarium oxysporum vasinfectum; assay: as above; conditions: RPMI 1640, culture 2-7 days
[9] = test system: M. gypseum; assay: as above; conditions: Nannizzia gypsea, RPMI 1640, culture 2-7 days
[10] = test system: S. schenekn; assay: as above; conditions: RPMI 1640, culture 2-7 days
[11] = test system: Setosphaeria turcica; assay: as above; conditions: Exserohilum turcicum, RPMI 1640, culture 2-7 days
[12] = test system: Terchoderma; assay: as above; conditions: Trichoderma, RPMI 1640, culture 2-7 days
[13] = test system: gibberella; assay: as above; conditions: RPMI 1640, culture 2-7 days
[14] = test system: A375; assay: In vitro anticancer MTT experiment; conditions: Homo sapiens, A-375, concentration 5 ug/ml, 48 h or 72 h, read-out: inhibition ratio A375
Method in brief: (§1)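 Cells seeded (6000-7000/well) → 12 h at 37° C., 5% CO2 → compound 48 or 72 h → MTT 4 h → DMSO → A570. % inhibition vs untreated and medium-only wells, at 5 ug/ml.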

[15] = test system: AS24391; assay: In vitro anticancer MTT experiment; conditions: concentration 5 ug/ml, 48 h or 72 h, read-out: inhibition ratio AS24391
Method in brief: as §1

[16] = test system: B01092; assay: In vitro anticancer MTT experiment; conditions: concentration 5 ug/ml, 48 h or 72 h, read-out: inhibition ratio B01092
Method in brief: as §1

[17] = test system: CRL-1435PC-3; assay: In vitro anticancer MTT experiment; conditions: concentration 5 ug/ml, 48 h or 72 h, read-out: inhibition ratio CRL-1435PC-3
Method in brief: as §1

[18] = test system: CRL-1469PANC-1; assay: In vitro anticancer MTT experiment; conditions: concentration 5 ug/ml, 48 h or 72 h, read-out: inhibition ratio CRL-1469PANC-1
Method in brief: as §1

[19] = test system: CRL-2233SNU-398; assay: In vitro anticancer MTT experiment; conditions: concentration 5 ug/ml, 48 h or 72 h, read-out: inhibition ratio CRL-2233SNU-398
Method in brief: as §1

[20] = test system: FTC 133; assay: In vitro anticancer MTT experiment; conditions: Homo sapiens, concentration 5 ug/ml, 48 h or 72 h, read-out: inhibition ratio FTC 133
Method in brief: as §1

[21] = test system: HTB-131MDA-MB-453; assay: In vitro anticancer MTT experiment; conditions: concentration 5 ug/ml, 48 h or 72 h, read-out: inhibition ratio HTB-131MDA-MB-453
Method in brief: as §1

[22] = test system: HTB-38HT-29; assay: In vitro anticancer MTT experiment; conditions: concentration 5 ug/ml, 48 h or 72 h, read-out: inhibition ratio HTB-38HT-29
Method in brief: as §1

[23] = test system: HTB-94; assay: In vitro anticancer MTT experiment; conditions: concentration 5 ug/ml, 48 h or 72 h, read-out: inhibition ratio HTB-94
Method in brief: as §1

[24] = test system: HTB-95637; assay: In vitro anticancer MTT experiment; conditions: concentration 5 ug/ml, 48 h or 72 h, read-out: inhibition ratio HTB-95637
Method in brief: as §1

[25] = test system: L1210; assay: In vitro anticancer MTT experiment; conditions: Mus musculus, concentration 5 ug/ml, 48 h or 72 h, read-out: inhibition ratio L1210
Method in brief: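 Reported inhibition ratio refers to 5 ug/ml compound, calculated from OD 570 nm against untreated-cell and medium-only references. MTT readout followed 48 h or 72 h drug exposure at 37° C., 5% CO2. Log-phase cells were plated at 6000-7000 per well in RPMI 1640 with 10% FCS.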

[26] = test system: SGC7901; assay: In vitro anticancer MTT experiment; conditions: Homo sapiens, SGC-7901, concentration 5 ug/ml, 48 h or 72 h, read-out: inhibition ratio SGC7901
Method in brief: as §1

[27] = test system: L428; assay: In vitro anticancer MTT experiment; conditions: Homo sapiens, L-428, concentration 5 ug/ml, 48 h or 72 h, read-out: inhibition ratio L428
Method in brief: as §1

| Structure (SMILES) | MIC [1] [µg/mL] | MIC [2] [µg/mL] | MIC [3] [µg/mL] | MIC [4] [µg/mL] | MIC [5] [µg/mL] | MIC [6] [µg/mL] | MIC [7] [µg/mL] | MIC [8] [µg/mL] | MIC [9] [µg/mL] | MIC [10] [µg/mL] | MIC [11] [µg/mL] | MIC [12] [µg/mL] | MIC [13] [µg/mL] | inhibition at 5 µg/mL [15] [%] | inhibition at 5 µg/mL [16] [%] | inhibition at 5 µg/mL [17] [%] | inhibition at 5 µg/mL [18] [%] | inhibition at 5 µg/mL [19] [%] | inhibition at 5 µg/mL [20] [%] | inhibition at 5 µg/mL [21] [%] | further results |
| --- | --- | --- | --- | --- | --- | --- | --- | --- | --- | --- | --- | --- | --- | --- | --- | --- | --- | --- | --- | --- | --- |
| Cc1cc2c(cc1F)SC/C(=C\Cl)C2=O [Compound 6, (Z)-3-(chloromethylene)-7-fluoro-6-methylthiochroman-4-one] | 8 (≈ 33 µM) | 32 (≈ 132 µM) | 8 (≈ 33 µM) | 4 (≈ 16.5 µM) | 4 (≈ 16.5 µM) | 16 (≈ 65.9 µM) | 32 (≈ 132 µM) | 16 (≈ 65.9 µM) | 4 (≈ 16.5 µM) | 16 (≈ 65.9 µM) | 4 (≈ 16.5 µM) | 16 (≈ 65.9 µM) | 8 (≈ 33 µM) | 59.8 | 57.9 | 56.7 | 53.8 | 60.1 | 59.3 | 60.7 | inhibition at 5 µg/mL [14]: 65.8%; inhibition at 5 µg/mL [22]: 44.2%; inhibition at 5 µg/mL [23]: 45.4%; inhibition at 5 µg/mL [24]: 48%; inhibition at 5 µg/mL [25]: 76.9%; inhibition at 5 µg/mL [26]: 45.3% |
| O=C1/C(=C/Br)CSc2ccc(Cl)cc21 [Compound 10, (Z)-3-(bromomethylene)-6-chlorothiochroman-4-one] | 16 (≈ 55.3 µM) | 64 (≈ 221 µM) | 64 (≈ 221 µM) | 4 (≈ 13.8 µM) | 8 (≈ 27.6 µM) | 32 (≈ 111 µM) | 64 (≈ 221 µM) | 64 (≈ 221 µM) | 64 (≈ 221 µM) | 64 (≈ 221 µM) | 32 (≈ 111 µM) | 16 (≈ 55.3 µM) | 32 (≈ 111 µM) | 56.7 | 69 | 46.6 | 45.1 | 45.6 | 45.6 | 53.5 | inhibition at 5 µg/mL [22]: 54.7%; inhibition at 5 µg/mL [23]: 46.8%; inhibition at 5 µg/mL [24]: 40.8%; inhibition at 5 µg/mL [25]: 84.4%; inhibition at 5 µg/mL [27]: 50.6%; inhibition at 5 µg/mL [26]: 56.5% |
| O=C1/C(=C\Cl)CSc2ccc(Cl)cc21 [Compound 21, (E)-6-chloro-3-(chloromethylene)thiochroman-4-one] | 8 (≈ 32.6 µM) | 8 (≈ 32.6 µM) | 8 (≈ 32.6 µM) | 4 (≈ 16.3 µM) | 8 (≈ 32.6 µM) | 16 (≈ 65.3 µM) | 16 (≈ 65.3 µM) | 32 (≈ 131 µM) | 32 (≈ 131 µM) | 16 (≈ 65.3 µM) | 32 (≈ 131 µM) | 4 (≈ 16.3 µM) | 8 (≈ 32.6 µM) | 60.3 | 35.9 | 54.6 | 63 | 46.7 | 55.9 | 55.6 | inhibition at 5 µg/mL [14]: 56.9%; inhibition at 5 µg/mL [22]: 54.3%; inhibition at 5 µg/mL [24]: 54.3%; inhibition at 5 µg/mL [25]: 78.4%; inhibition at 5 µg/mL [27]: 52.3%; inhibition at 5 µg/mL [26]: 50% |
